d = 2'-deoxy (DNA); r = 2'-OH (RNA)
Tested on: HXB2 HIV
Test: Rescue of 3′UTR siRNA-mediated inhibition of HIV replication by non-targeted cDNA, β-galactosidase readout
Format: cell-based
Details: LIG3 cDNA lacking the 3′UTR; FIG. 7

In the case of “CAUACUCUCCUUUACCAUAdTdT (CAUACUCUCCUUUACCAUATT; siRNA; sugars from the 5' end r19 d2, backbone not given here) [LIG3 siRNA #8, siRNA targeting the 3′UTR of LIG3]”, the “p, difference between siRNA+vector-transfected and siRNA+cDNA transfected” value is reported as < 0.05.
